Data from ChEMBL document CHEMBL3272305, “Synthesis and comparative skeletal muscle relaxant activity of some 2,4-imidazolidinediones and their corresponding 5-hydroxy-2,4-imidazolidinediones” (J Med Chem, 1978).
Activity calls are given as the source filed them. The rule behind the calls is not given here.

Experiments:
Mus musculus [1] = test: Induction of skeletal muscle relaxation in po dosed albino mouse after 60 mins; assay type: functional; conditions: 1 h
Mus musculus [2] = organism: Mus musculus; test: Muscle relaxant efficacy index, ratio of ED50 for muscle incoordination in mouse to ED50 for induction of straub tail relaxation in albino mouse
Rattus norvegicus [3] = test: Inhibition of gastrocnemius twitch in iv dosed Sprague-Dawley rat; assay type: functional
Mus musculus [4] = organism: Mus musculus; test: Induction of muscle incoordination in mouse after 30 mins by rotarod test; assay type: organism-based, Muscle tissue; conditions: in vivo, 0.5 h
[5] = Toxicity in albino mouse after 72 hrs; assay type: organism-based; conditions: in vivo
Mus musculus [6] = organism: Mus musculus; test: Induction of straub tail relaxation in albino mouse assessed as gain of righting reflex in 1 min; assay type: functional
Rattus norvegicus [7] = test: Inhibition of gastrocnemius twitch in Sprague-Dawley rat at cumulative dose of 36.6 mg/kg, iv relative to control; assay type: functional
[8] = (§1) Inhibition of twitch in Charles River rat diaphragm at 60 mg/L after 5 mins; assay type: functional
Mus musculus [9] = test: Induction of skeletal muscle relaxation in ip dosed albino mouse after 60 mins; assay type: functional; conditions: 1 h
[10] = Therapeutic index, ratio of LD50 for albino mouse to ED50 for induction of straub tail relaxation in albino mouse; assay type: organism-based; conditions: in vivo, read-out: Ratio LD50/ED50
Rattus norvegicus [11] = organism: Rattus norvegicus; test: as §1; assay type: functional

| Structure (SMILES) | ED50 (Mus musculus [1]) [mg/kg] | Ratio ED50 (Mus musculus [2]) | ED50 (Rattus norvegicus [3]) [µmol/kg] | ED50 (Mus musculus [4]) [mg/kg] | LD50 at 72 h [5] [mg/kg] | ED50 (Mus musculus [6]) [mg/kg] | inhibition in vivo at 36.6 mg/kg (Rattus norvegicus [7]) [%] | inhibition at 60 µg/mL [8] [%] | ED50 (Mus musculus [9]) [mg/kg] | selectivity ratio [10] | inhibition (Rattus norvegicus [11]) |
| --- | --- | --- | --- | --- | --- | --- | --- | --- | --- | --- | --- |
| O=C1NC(=O)N(/N=C/c2ccc(-c3ccc([N+](=O)[O-])cc3)o2)C1O (stereo not given) | > 1000 | <0.17 | 15 | 171 | > 5000 | > 1000 | -76 | ≥ 40 | > 1000 | – | – |
| O=C1CN(/N=C/c2ccc(-c3ccc([N+](=O)[O-])cc3)o2)C(O)=N1 [DANTROLENE] | 490 | 2.7 | 7 | 153 | > 7000 | 56 | -80 | ≥ 40 | 83 | 124 | – |
| Nc1ccc(-c2ccc(/C=N/N3C(=O)NC(=O)C3O)o2)cc1 (stereo not given) | > 1000 | – | 39 | > 1000 | 192 | > 1000 | -67 | ≥ 40 | > 1000 | – | – |
| N#Cc1ccc(-c2ccc(/C=N/N3CC(=O)NC3=O)o2)cc1 | > 1000 | <0.09 | 20 | 91 | 2340 | > 1000 | -76 | ≥ 40 | > 1000 | – | – |
| Nc1ccc(-c2ccc(/C=N/N3CC(=O)NC3=O)o2)cc1 | > 1000 | – | > 129 | > 1000 | 1040 | > 1000 | -19 | – | > 1000 | – | inactive |
| O=C1NC(=O)N(/N=C/c2ccc(-c3ccc(Cl)cc3)o2)C1O (stereo not given) | > 1000 | <0.06 | 16 | 63 | 522 | > 1000 | -77 | ≥ 40 | > 1000 | – | – |
| O=C1CN(/N=C/c2ccc(-c3ccc(Cl)cc3)o2)C(=O)N1 | > 1000 | <0.04 | 22 | 40 | > 6000 | > 1000 | -74 | ≥ 40 | 1000 | – | – |
| O=C1CN(/N=C/c2ccc(-c3ccc(F)cc3)o2)C(=O)N1 | 112 | 0.4 | 38 | 369 | 1400 | 950 | -71 | ≥ 40 | 105 | 1.5 | – |
| O=C1NC(=O)N(/N=C/c2ccc(-c3ccc(Cl)c(Cl)c3)o2)C1O (stereo not given) | 109 | 0.3 | 19 | 10 | 209 | 34 | -82 | ≥ 40 | 72 | 6.1 | – |
| O=C1NC(=O)N(/N=C/c2ccc(-c3ccc(F)cc3)o2)C1O (stereo not given) | > 1000 | <0.24 | 91 | 240 | 784 | > 1000 | -53 | ≥ 40 | 1000 | – | – |
| O=C1CN(/N=C/c2ccc(-c3ccc(Cl)c(Cl)c3)o2)C(=O)N1 [CLODANOLENE] | > 1000 | <0.18 | 10 | 181 | > 7000 | > 1000 | -77 | ≥ 40 | 647 | – | – |
| O=C1NC(=O)N(/N=C/c2ccc(-c3cccc(C(F)(F)F)c3)o2)C1O (stereo not given) | 166 | <0.09 | 96 | 85 | 563 | > 1000 | -57 | ≥ 40 | 244 | – | – |
| CC(=O)Nc1ccc(-c2ccc(/C=N/N3C(=O)NC(=O)C3O)o2)cc1 (stereo not given) | > 1000 | – | > 107 | > 1000 | 673 | > 1000 | -10 | – | > 1000 | – | inactive |
| O=C1CN(/N=C/c2ccc(-c3cccc(C(F)(F)F)c3)o2)C(=O)N1 | 647 | 0.85 | 50 | 166 | 274 | 184 | -74 | ≥ 40 | 143 | 1.4 | – |
| N#Cc1ccc(-c2ccc(/C=N/N3C(=O)NC(=O)C3O)o2)cc1 (stereo not given) | > 1000 | 0.13 | 25 | 96 | 104 | 743 | -69 | ≥ 40 | 156 | 0.14 | – |
| CC(=O)Nc1ccc(-c2ccc(/C=N/N3CC(=O)NC3=O)o2)cc1 | > 1000 | – | > 112 | > 1000 | 1140 | > 1000 | 4 | – | > 1000 | – | inactive |
